Results on 9 molecules are retold here after patent publication US12678433B2, “Compounds for treatment of hemolysis-and inflammasome-associated diseases” (New York Blood Center, Inc., priority 2020, dated 2026).

For data set [1], the system named is HO-1. Description: HO-1 expression in stimulated B cells. In kind it is cell-based, human. As to conditions: for HO-1 upregulation: 2.5 μM compound with 5 μM heme. An excerpt: HO-1 is a key enzyme for heme degradation with multiple biologic activities attributed to its enzymatic byproducts. We analyzed HO-1 expression levels in human B cells before and after stimulation with our polyclonal B cell activation cocktail. […] We also found higher HO-1 levels in DOCK8^hi plasma cells (FIG. 8B).

Data set [2] concerns purified naïve B cells from healthy donors. As to conditions: for effect on plasma cell differentiation without or with heme: 2.5 μM compound, without or with 5 μM heme; for inhibition of B cell proliferation / inhibition of plasma cell differentiation: at the highest concentrations. The method, then:
Hemin and RBC lysate preparation. Hemin, dissolved in dimethyl sulfoxide (DMSO), stock concentration 10 mM, was diluted to 100 μM with serum-free RPMI 1640 culture medium just prior to addition to B cell cultures. For short-term experiments lasting less than 24 hr, a final concentration of 10 μM hemin was used whereas for longer-term culture up to 7 days, 2.5-5 μM final heme concentration was used. RBC lysates were freshly prepared (containing ~80 g/L hemoglobin) for same day use. Briefly, 4 ml whole blood from healthy donors was passed through Acrodisc WBC syringe filter (Pall Corporation) to remove white blood cells followed by two washes with Dulbecco's Phosphate Buffered Saline (D-PBS) (200×g, 10 min at room temperature with no brake) for removal of platelets. The RBC pellet was lysed with 3 times volume of distilled water for 10 min at 37° C. Cellular debris was pelleted by centrifugation at 4000×g for 10 min at 4° C. The RBC lysate was transferred to a new tube and 1/9 volume of 10×D-PBS added.
Cell isolation and culture. Peripheral blood mononuclear cells (PBMCs) were prepared by Ficoll (GE Healthcare) density gradient centrifugation from healthy donor leukopak products as well as from sickle peripheral blood apheresis waste bags. Human naïve and memory B cells were isolated from PBMCs using a human memory B Cell Isolation Kit (Miltenyi Biotec) by collecting CD27− B cells (naïve B cells) and CD27+ B cell (memory B cells) separately. […] RPMI 1640 culture medium was used for all cell culture experiments (supplemented with 10% FBS, 100-unit penicillin-streptomycin, […], 1 mM sodium pyruvate, all from Thermo Fisher Scientific). Purified B cells were stained with CFSE (Cat #: C34554, Thermo Fisher Scientific) and cultured in U-bottom 96 well plates (2.5×10^5/well/200 μl culture medium) in the presence of goat anti-human IgA+IgG+IgM (H+L) F(ab′)2 fragment (2.5 μg/ml, Jackson ImmunoResearch), CD154 (10 ng/ml, R&D Systems) and CpG (ODN 7909, 1 nM, Cat #: tlrl-2006-1) without IL-2 for analysis of only CD38+ plasmablast differentiation or with IL-2 (5 ng/ml, Cat #:1081-IL-020, R&D Systems) in experiments to detect CD27^hiBlimp-1+ plasma cells. In addition, heme and various inhibitors were added to the cultures at the start point and incubated for 7 days.
(§1) Cultured cells: stimulated B cells were transferred into U bottom 96 well plate and washed with 200 μl MACS buffer (D-PBS containing 0.5% BSA and 2 mM EDTA) at 300×g for 5 min at 4° C. After one wash, cells were stained for surface expression of CD19, CD38, CD27 using 25 μl staining buffer (anti-CD19, CD38, CD27 antibodies, diluted 200 fold with MACS buffer) for 30 min at 4° C. After one wash with 200 μl MACS buffer, cells were resuspended in 100 μl D-PBS and 50 μl Fixable Viability Dye eFluor™ 780 (1000 fold diluted with D-PBS, Thermo Fisher Scientific) was added for dead cell detection for 5 min at room temperature. Cells were washed one time with MACS buffer and 100 μl D-DPS was added just before flow cytometric analysis (LSRFortessa flow cytometer, BD Bioscience). For intracellular staining of IgG, Blimp-1 and HO-1, samples were first washed with 200 μl MACS buffer before addition of 150 μl Fixation/Permeabilization buffer (Thermo Fisher Scientific) for 45 min at 4° C. After fixation, samples were washed twice with 1× Permeabilization buffer (Thermo Fisher Scientific) and stained with 25 μl intracellular staining buffer (anti-human IgG, DOCK8, Blimp-1, HO-1 antibodies, diluted 200 fold with 1× Permeabilization buffer) for 45 min at 4° C., after which the cells were washed twice with Permeabilization buffer and 100p D-DPS was added prior to flow cytometric analysis.

Data set [3] deals with NLRP3 inflammasome pathway. In words: NLRP3 inflammasome activation, IL-1β secretion by LPS-primed monocytes. In kind it is cell-based, human. As to conditions: in the presence/absence of hemin. How it is done: FIG. 13A-D depicts human monocytes isolated from peripheral blood were cultured with LPS for 3 hours to prime pro-IL-1β production followed by addition of various NLRP3 pathway agonists to trigger IL-1β secretion without or with therapeutic reagents including hemin, quinine or hemin plus quinine (all at 2.5 μM concentration for all experiments except the dose response studies in FIGS. 13B and C). Levels of IL-1β, IL-6 and TNF-α in the culture supernatants was analyzed 30 min (for ATP treatment) or 2 hours (for nigericin and imiquimod) after addition of NLRP3 agonists. FIG. 13A: The effect of hemin, quinine and hemin plus quinine on IL-1β secretion triggered by various NLRP3 agonists. FIG. 13B: The dose dependent effect of hemin, quinine and hemin plus quinine. FIG. 13C: The effect of QA, CQ, AQ, and DHA in the presence/absence of hemin. FIG. 13D: The effect of hemin, quinine, or hemin plus quinine on IL-6 and TNF-α.

Data set [4] has as its system DOCK8. In words: DOCK8 expression and DOCK8hi/DOCK8lo subsets in stimulated B cells. In kind it is cell-based, human. To be noted: quinine in the presence of heme. The source says:
We next tested the effect of cell-free heme on DOCK8 signaling during B cell differentiation. […] Heme treatment led to inhibition of CD27^hiBlimp-1^+ plasma cell differentiation (FIG. 2D, p=0.0195).

The conditions of data set [5]: QA 12 mg/kg intraperitoneally twice per day; cited from earlier work.
Data set [6] has as its system naïve B cells from Allo(−) and Allo(+) SCD patients. Description: 7-day stimulated naïve B cell culture from SCD patients. Format: cell-based, human. As to conditions: for effect on heme-mediated inhibition of plasmablast differentiation: SnPPIX 2.5 μM, heme 2.5 μM. How it is done:
Human samples. All studies were approved by the institutional Review Boards of the New York Blood Center (NYBC) and Montefiore Health Center. […] The blood samples from SCD patients were processed within 18 hours after collection. For circulating DOCK8 expression studies in healthy controls, peripheral blood samples from de-identified, race-matched healthy donors were used. Leukocyte enriched products from de-identified healthy donors were used for purification of B cells for in vitro culture studies.
Cell isolation and culture. Peripheral blood mononuclear cells (PBMCs) were prepared by Ficoll (GE Healthcare) density gradient centrifugation from healthy donor leukopak products as well as from sickle peripheral blood apheresis waste bags. Human naïve and memory B cells were isolated from PBMCs using a human memory B Cell Isolation Kit (Miltenyi Biotec) by collecting CD27− B cells (naïve B cells) and CD27+ B cell (memory B cells) separately. […] In addition, heme and various inhibitors were added to the cultures at the start point and incubated for 7 days.
as §1

For data set [7], the system named is SCD mice. In words: RBC alloimmunization in SCD mice after huGPA RBC transfusion (anti-GPA antibody in plasma). As to conditions: QA 12 mg/kg intraperitoneally twice per day. In kind it is in vivo, mouse. How it is done:
FIG. 10A-C. Effects of heme and quinine on mouse B cell differentiation in vitro: Splenic B cells were purified from C57BL/6J mice (n=3), stained with CFSE and cultured (5×10^4/well) for 7 days in the presence of anti-mouse IgM, IgG F(ab)′2 (10 μg/ml), anti-mouse CD40 antibody (1 μg/ml) and CpG (ODN1826) (1 μg/ml) without or with different doses of quinine and in the absence or presence of 2.5 μM or 5 μM concentration of hemin. Fold difference in proliferated B cells (FIG. 10A) and CD138+ plasma B cells (FIG. 10B) are shown. FIG. 10C: Representative experiment in SCD mice following transfusion of RBCs expressing human GPA (huGPA RBCs) collected from mice transgenic for human GPA in the absence or presence of quinine (QA). Briefly, mice were transfused twice with […] of huGPA RBCs, each transfusion given one week apart. Mice were treated intraperitoneally twice per day with QA (12 mg/kg, reported to maintain serum quinine levels at 0.5~1 μM) or the same volume PBS. Levels of anti-GPA antibody in plasma were measured 7 days after the last transfusion by flow cytometry.

With `CCN(CC)Cc1cc(Nc2ccnc3cc(Cl)ccc23)ccc1O` [AQ, amodiaquine], in data set [1], the HO-1 upregulation result was “not”. In data set [2], the “effect on plasma cell differentiation without or with heme” value is listed as “inhibited plasma cell differentiation in the absence or presence of heme”. In addition, the “effect of other hemin binding small molecules on the inflammasome activation pathway” value (“effect … on the inflammasome activation pathway” for short) in data set [3] is listed as “no inhibitory effect”.

For `C[C@H]1[C@@H](O)O[C@@H]2O[C@@]3(C)CC[C@H]4[C@H](C)CC[C@@H]1[C@@]24OO3` [DHA, dihydroartemisinin], the “effect … on the inflammasome activation pathway” value in data set [3] is “no inhibitory effect”.

With `Cl.Cl.NCCNc1ncc(C(N)=O)c(Nc2cccc(C(F)(F)F)c2)n1` [Syk Inhibitor II], in data set [1] (SYK inhibitor relative to no SYK inhibitor), the “HO-1 in stimulated B cells” value is given as “induction of HO-1”.

For `C=C[C@H]1C[N@@]2CC[C@H]1C[C@H]2[C@H](O)c1ccnc2ccc(OC)cc12` [quinine, (R)-(6-Methoxyquinolin-4-yl)[(1S,2S,4S,5R)-5-vinylquinuclidin-2-yl]methanol], the “effect on DOCK8 expression” value in data set [4] is on record as “no significant effect”. The serum quinine levels in data set [5] was 0.5~1 μM. Besides, the “effect on plasma cell differentiation without or with heme” value in data set [2] is reported as “required the presence of heme”. Further, the “cytotoxic effects (viability studies)” value in data set [2] (except at the highest doses of heme plus quinine) is recorded as “minimal cytotoxic effects”. Also, the “effect on resistance to heme suppression” value in data set [6] (Allo(+) patients, quinine plus heme) is “reversed resistance to heme suppression”. The “effect on heme-mediated suppression of plasma cells” value in data set [6] (Allo(−) SCD patients, quinine plus heme) is “further increased heme-mediated suppression”. For the same molecule, in data set [6] (both groups of SCD patients), the “effect on plasma cell differentiation in the absence of heme” value was “weak but significant inhibitory effect”. The “RBC alloimmunization levels in vivo” value in data set [7] was “did not lower”.

Turning to `CCN(CC)CCCC(C)Nc1ccnc2cc(Cl)ccc12` (stereo not shown) [CQ, chloroquine], the HO-1 upregulation entry in data set [1] is recorded as “not”. Besides, the “effect on plasma cell differentiation without or with heme” value in data set [2] is on record as “inhibited plasma cell differentiation in the absence or presence of heme”. In addition, the “effect … on the inflammasome activation pathway” value in data set [3] was “no inhibitory effect”.

For `C=Cc1c2[n-]c(c1C)/C=c1\[n-]/c(c(C)c1C=C)=C\c1[n-]c(c(CCC(=O)O)c1C)C=c1[n-]/c(c(C)c1CCC(=O)O)=C\2.[Sn+4]` [SnPPIX, tin protoporphyrin IX], in data set [2] (SnPPIX 2.5 μM with heme 2.5 μM), the “effect on heme-mediated inhibition of plasmablast cell differentiation” value is on record as “reversed”. Also, in data set [2] (SnPPIX alone 2.5 μM), the effect on differentiation entry is listed as “no effect”. Besides, the “frequency of CD38+ plasmablasts” value in data set [2] (SnPPIX alone 2.5 μM, vs 6.3%±2.7%) is on record as 8.1%±3.5%. Besides, the “effect on B cell proliferation” value in data set [2] (heme 2.5 μM, SnPPIX 2.5 μM, alone or together) was “little to no effect”. In addition, the results for the “effect on heme-mediated inhibition of plasmablast differentiation” value in data set [6] (Allo(+) SCD patients) and in data set [6] (Allo(−) SCD patients) were “less effect” and “reversed heme-mediated inhibition”, respectively. In addition, the “B cell proliferative responses, Allo(+) versus Allo(−)” value in data set [6] (in the presence of SnPPIX 2.5 μM) is recorded as “comparable”.

Take `NCC(=O)O.[C-]#[O+].[C-]#[O+].[C-]#[O+].[Cl][Ru]` [CORM-3, carbon monoxide releasing molecule-3]: in data set [2], the “inhibition of B cell proliferation” value was 38.7%±5.0% and the “inhibition of plasma cell differentiation” value is on record as 91.2%±2.9%.

As for `C=CC1=C(C)/C(=C/C2=NC(=C\c3[nH]c(/C=C4\NC(=O)C(C)=C4C=C)c(C)c3CCC(=O)O)/C(CCC(=O)O)=C2C)NC1=O` [biliverdin], in data set [2], the “inhibition of B cell proliferation” value is 13.3%±3.5% and the “inhibition of plasma cell differentiation” value is 68.4%±18.6%.

B1: hemopexin: a heme scavenging protein (protein, UniProt P02790 24-462, looked up)
Hemopexin: TPLPPTSAHGNVAEGETKPDPDVTERCSDGWSFDATTLDDNGTMLFFKGEFVWKSHKWDRELISERWKNFPSPVDAAFRQGHNSVFLIKGDKVWVYPPEKKEKGYPKLLQDEFPGIPSPLDAAVECHRGECQAEGVLFFQGDREWFWDLATGTMKERSWPAVGNCSSALRWLGRYYCFQGNQFLRFDPVRGEVPPRYPRDVRDYFMPCPGRGHGHRNGTGHGNSTHHGPEYMRCSPHLVLSALTSDNHGATYAFSGTHYWRLDTSRDGWHSWPIAHQWPQGPSAVDAAFSWEEKLYLVQGTQVYVFLTKGGYTLVSGYPKRLEKEVGTPHGIILDSVDAAFICPGSSRLHIMAGRRLWWLDLKSGAQATWTELPWPHEKVDGALCMEKSLGPNSCSANGPGLYLIHGPNLYCYSDVEKLNAAKALPQPQNVTSLLGCTH
With B1, in data set [2] (hemopexin 2.5 μM, RBC lysate 1 g/L hemoglobin or heme 2.5 μM), the “effect of pre-incubation with hemopexin on inhibition by RBC lysate or free heme” value is given as “reversed the inhibitory effect”.
